SMILES strings stand for the structures.

As usually defined, the melting point is the temperature, or range, at which the solid turns liquid. The compound `CCOc1cc2c3c(cccc3c1)C(=O)N(O)C2=O` had a melting point of 224 to 227 °C.

Regarding `CCCCc1cn(Cc2ccc(-c3ccccc3C(=O)O)cc2)c2ccccc2c1=O`, the melting point stood at 214 °C.

Turning to `CC(C)=Cc1c(C)nc(C)c(CO)c1-c1ccccc1`, the melting point lay within 48 to 50 °C.

For the compound `COc1ccc(S(=O)(=O)N(Cc2cccnc2)c2c(C(=O)O)cnc3snc(C)c23)cc1`, the melting point was in the range of 234 to 236 °C.

`CCOc1cc(OCCO)cc2c1C(=O)N(COC(=O)c1c(Cl)cccc1Cl)S2(=O)=O` yielded a melting point of 166 °C.

With `CC(C)C(NS(=O)(=O)c1ccc(Cl)cc1)C(=O)Nc1ccc(CC(=O)O)cc1` (racemic), the melting point lay within 228 to 230 °C.

Consider `O=S1(=O)N(CCN2CCN(c3ccc(F)cc3)CC2)c2cccc3c2N1CCC3`, for which the melting point came to 118 °C.

Turning to `Cc1cccnc1OC(=O)Oc1ncccc1C`, the melting point is 110 to 112 °C.

For `CCCCN(CC)CC(=O)N1c2ccccc2N(C)C(=O)c2cnc(-c3ccccc3)nc21`, the melting point is 107 to 109 °C.

`N#CCc1cccc(-c2ccc3c(c2)C2(CCCCC2)C(=O)N3)c1` had a melting point of 190 to 193 °C.

As to `N#CC1(Nc2ccc(Cl)c(Cl)c2)CCN(C(=O)c2cc(C(F)(F)F)cc(C(F)(F)F)c2)CC1`, the melting point fell in the range of 195 to 197 °C.

The compound `COc1ccc(CCN2CCC(NC(C)=O)CC2)cc1OC` yielded a melting point of 152 to 154 °C.

Compound `N#Cc1c(N2CCCCC2)cccc1[N+](=O)[O-]` yielded a melting point of 119 to 121 °C.

Compound `CC(C)c1ccc(Cl)nn1` yielded a melting point of 32 to 33 °C.

As for `CCOC(=O)c1cn(CCF)c2nc(SCC)c(F)cc2c1=O`, the melting point was in the range of 271 to 273 °C.

The compound `Clc1ncnc2cc3c(cc12)OCCO3` yielded a melting point of 169 to 174 °C.

Regarding `C=CC[C@H](C(N)=O)[C@@H](CC(C)C)C(=O)NC1N=C(N(C)C)c2ccccc2N(C)C1=O` (some centres undefined), the melting point lay within 230 to 232 °C.

`CCOC(=O)c1csc(Br)n1`: the melting point fell in the range of 66 to 68 °C.

Consider `Nn1c(C(F)(F)F)cc(-c2ccc(C(F)(F)F)cc2)cc1=O`, for which the melting point turned out to be 125 °C.

Compound `CCc1nc2c(cnn2CC)c(NC2CCOCC2)c1CNC(=O)c1cccc(C(=O)NCc2ccc(OC)c(-c3cccc(CN4CC5CC4CN5)c3)c2)c1` (centres undefined) registered a melting point of 129 to 131 °C.

Compound `CC(C)(C)OC(=O)NC1CCc2cccc(-c3ccccc3)c2CC1=O` (centres undefined) gave a melting point of 173 to 174 °C.

The compound `CN1C(=O)C(C(=O)Nc2ccc(Cl)c(Cl)c2)S(=O)(=O)c2cc(Cl)ccc21` (centres undefined) returned a melting point of 176 to 178 °C.

`O=C(Nc1cccc(C(F)(F)F)c1)c1ccccc1NCc1ccc(=O)[nH]c1`: the melting point was 171 to 172 °C.

The compound `Cn1ncnc1-n1cc(C(=O)O)c(=O)c2cc(F)c(Cl)nc21` showed a melting point of 238 to 242 °C.

`N#CCC1Cn2cccc2C1=O` (centres undefined) had a melting point of 68 °C.

In turn, `Cc1csc2ccc(CO)cc12` returned a melting point of 51 to 53 °C.

Regarding `CS(=O)(=O)c1ccc(-n2cncc2-c2ccc(Cl)cc2)cc1`, the melting point was in the range of 192 to 193 °C.

The compound `CC1(C)C(=O)N(Cc2ccccc2)C(=O)N1CC#CI` returned a melting point of 83 to 85 °C.

Turning to `O=C(NCc1ccccc1)c1ccnc(-n2ccc(O)cc2=O)c1`, the melting point is 102 to 105 °C.

With `CC(NC(Nc1cccc(C#N)c1)=C(C#N)S(=O)(=O)c1ccc(Cl)cc1)C(C)(C)C` (centres undefined), the melting point is 80 to 82 °C.

Turning to `CC(C=CO)c1ccc(-c2ccc(Cl)cc2)cc1` (centres undefined), the melting point lay within 130 to 132 °C.

`N#CCn1nc(-c2c(-c3ccccc3)nn3ccccc23)ccc1=O`: the melting point fell in the range of 218 to 219 °C.

As to `COCc1nc(C(C)(C)O)c(C(=O)O)n1Cc1ccc(-c2ccccc2C(=O)O)cc1`, the melting point is 164 to 165 °C.

As to `CC(O)c1ccc(NS(C)(=O)=O)c(Sc2ccc(F)cc2F)c1` (centres undefined), the melting point is 118 to 120 °C.

`Cc1[nH]c(=S)[nH]c(=O)c1CCc1ccccc1`: the melting point is 210 to 214 °C.

Compound `CC(C)Oc1n[nH]c2nc(Oc3ccc(F)cc3F)ncc12` came in with a melting point of 144 to 145 °C.

As to `CC(C(=O)O)c1ccc2onc(-c3ccc(Cl)cc3)c2c1` (centres undefined), the melting point is 137 to 139 °C.

In turn, `Cc1c(S(=O)(=O)c2ccc(=O)[nH]n2)oc2ccc(Cl)cc12` gave a melting point of 247 to 248 °C.

For the compound `O=C1Cc2c(OCCN3CCc4ccccc4C3)ccc(F)c2N1`, the melting point was in the range of 230 to 235 °C.

`CC(C)(C)c1cc(C2N[C@H](C(=O)O)CS2)cc(C(C)(C)C)c1O` (some centres undefined): the melting point is 163 to 165 °C.

As for `CCn1cc(CN(C(=O)C2CCCc3ccc(C)cc32)c2ccc(C(C)C)cc2)cn1` (centres undefined), the melting point is 110 to 112 °C.

In turn, `CN1CCC(Nc2ccccc2OCc2ccccc2)CC1` had a melting point of 90 to 95 °C.

As for `COC(=O)Oc1ccc(-c2ccc(=O)n(Cc3ccc(Cl)cc3F)c2)cc1`, the melting point was found to be 124 °C.

In the case of `CC(=O)C(=Cc1ccc(S(C)(=O)=O)cc1)C(C)=O`, the melting point lay in the range of 139 to 140 °C.

As for `CCOC(=O)CCc1ccc2c(CCC(=O)OCC)c(O)ccc2n1`, the melting point is 74 to 76 °C.

`CC(C)(C)CC(C)(C)c1cc(-n2nc3ccc(C(=O)O)cc3n2)c(O)c(C(C)(C)c2ccccc2)c1` gave a melting point of 219 to 221 °C.

Consider `CCOC(=O)c1cn(C)c2nc3cc(Cl)c(F)cc3cc2c1=O`, for which the melting point was in the range of 360 to 362 °C.

As for `COC(=O)CCC(=O)c1ccc(C)cc1O`, the melting point is 61 to 63 °C.

The compound `CC(=O)Nc1ccc2c(c1)C(=O)N(CCCl)CO2` came in with a melting point of 133 to 135 °C.

As for `CCOC(=O)C1=Cc2sccc2S(=O)(=O)N1C`, the melting point is 87 to 89 °C.

For the compound `O=C(O)c1cn(C2CC2)c(-c2ccc3c(c2)OCO3)cc1=O`, the melting point was in the range of 211 to 212 °C.

As for `CSCc1cc(C(F)(F)F)ccc1N`, the melting point lay in the range of 65.5 to 67.5 °C.

Turning to `CCCCCCCCCCC[C@@H](O)CC(=O)O`, the melting point lay within 70.6 to 71.4 °C.

Regarding `CC(C)n1cc(C2(c3ccc(F)c(Br)c3)N=C(N)N(C)C2=O)cn1` (centres undefined), the melting point is 80 to 82 °C.

`CC(=O)OCn1cc(C#N)c(-c2ccccc2Cl)c1` displayed a melting point of 91 to 95 °C.

The compound `CC(C)(Oc1ccc(CC(=O)Nc2cc(Cl)c(Cl)c(Cl)c2)cc1)C(=O)O` gave a melting point of 160 °C.

As to `Cc1cc(C)cc(C(=O)N2CC[C@H](NCc3ccnc4ccccc34)C[C@H]2Cc2ccc(Cl)cc2)c1` (relative stereo), the melting point was in the range of 148 to 149 °C.

For the compound `CNC(=O)NS(=O)(=O)c1cc(CCNC(=O)c2cc(C(C)(C)C)ccc2OC)ccc1OC`, the melting point lay in the range of 209 to 212 °C.

In turn, `CN1C(c2ccc(C#N)cc2)=NC(C(F)(F)F)(C(F)(F)F)C1NC(=O)c1ccc(CF)cc1` (centres undefined) displayed a melting point of 189 to 190 °C.

With `CCOC(=O)c1cc(-c2csc(C)n2)[nH]n1`, the melting point lay within 141 to 142 °C.

The compound `CC(C)(C)SC1N(C(C(=O)OCc2ccc([N+](=O)[O-])cc2)C(=O)C(C)(C)C)C(=O)C1(C)C` (centres undefined) registered a melting point of 87.5 to 90.5 °C.

In turn, `CON(c1ccc([N+](=O)[O-])cc1C#N)S(=O)(=O)c1ccc(C)cc1` came in with a melting point of 148 to 150 °C.

`CC(=O)Nc1nc(N(C(C)=O)C(C)=O)c(CC=O)c(=O)[nH]1` showed a melting point of 169 to 170 °C.

The compound `O=C(CCCCC(=O)c1ccc(F)cc1)c1ccc(F)cc1` displayed a melting point of 165 to 167 °C.

As to `COC(=O)[C@H](Cc1cc(Cl)c(OCc2cccc3nc(-c4ccccc4)oc23)c(Cl)c1)NC(=O)C(F)(F)F`, the melting point fell in the range of 168 to 170 °C.

With `O=C(CC(=O)C(F)(F)F)Nc1cc(-c2cccs2)n[nH]1`, the melting point lay within 259 to 261 °C.

In turn, `COC(=O)C1CCc2c(noc2-c2ccc(Cl)cc2)C1` (centres undefined) had a melting point of 141 to 143 °C.

In turn, `CNC(=S)C1=CC(CF)(CF)Oc2ccc([N+](=O)[O-])cc21` came in with a melting point of 134 to 135 °C.

Compound `CCCCCCCCCCCCCCCCOC(=O)c1cc(C(=O)OCCCCCCCCCCCCCCCC)cc(S(=O)(=O)Cl)c1` showed a melting point of 48 to 50 °C.

`N#CN=C(Cc1ccccc1F)NC1CCc2ccccc21` (centres undefined): the melting point lay within 141 to 142 °C.

`CCOc1cc2c(cc1OC)C(c1ccc(OC)c(OC)c1)=NN=C(C)C2CC` (centres undefined) gave a melting point of 125 to 127 °C.

Compound `CC(NC(=O)[C@@H](N)C(C)C)c1cc2ccccc2s1` (some centres undefined) yielded a melting point of 70 to 71 °C.

`COC(=O)c1ccc(O)cc1NC(=O)c1ccc(C(C)(C)C)cc1` registered a melting point of 146 to 148 °C.

In turn, `CC12CCC3c4ccc(C(=O)O)cc4CCC3C1CCC2C(=O)c1cccs1` (centres undefined) displayed a melting point of 177 to 179 °C.

Compound `CCN1C(=O)C(C)(C)C(=O)N(C)c2cc(CN(CCn3cc(C)c4oc(C)cc4c3=O)Cc3cc(C)n(C)n3)ccc21` returned a melting point of 113 to 116 °C.

`Cn1cc(C(=O)O)c(=O)c2cc(F)c(Cl)cc21` showed a melting point of 342 °C.

`CCOC(=O)c1cc(NC(C)=O)ccc1O` yielded a melting point of 135 to 136 °C.

In the case of `O=C(Nc1csc(-c2ccncc2)n1)Nc1cccc2c1C1CCCCN1C2=O` (centres undefined), the melting point came to 152 °C.

`CCCCCCOc1ccc(C(=O)NCCN(O)C(N)=O)cc1` displayed a melting point of 148 to 151 °C.

Take `Cc1ccccc1-n1c(-c2sc(Nc3ccc(Cl)cc3)nc2C)nc2ccccc2c1=O`: the melting point is over 275 °C.

Consider `OC1CSC(Oc2ccc(-c3ccc(F)nc3)nc2Cl)C(O)C1O` (centres undefined), for which the melting point is 199 °C.

Take `Cc1ccc(-c2ccc3c(c2)C=C(C(=O)N[C@H]2CC[C@H](CN(C)C4CCOCC4)CC2)CO3)cc1`: the melting point lay within 141 to 143 °C.

Regarding `O=c1c2ccccc2nc(-c2cc(-c3ccncc3)c(N3CCOCC3)s2)n1-c1ccccc1`, the melting point was in the range of 230 to 231 °C.

In the case of `COCCOC(=O)c1cc(-c2c(C(F)(F)F)nc(OC)[nH]c2=O)c(F)cc1Cl`, the melting point lay in the range of 63 to 65 °C.

Take `COC(=O)CCCc1cc2cc(Cl)ccc2n1S(=O)(=O)c1ccc2c(c1)CCN2C(C)=O`: the melting point lay within 162 to 165 °C.

For `COC(=O)c1cc(=O)c2ccc(OCC(O)COc3cccc(O)c3C(C)=O)cc2[nH]1` (centres undefined), the melting point lay in the range of 192 to 194 °C.

The compound `CCOC(=O)c1[nH]c(Cl)nc1-c1ccccc1` had a melting point of 128 to 129 °C.

As for `c1ccc(C2(Cn3cncn3)OCCO2)cc1`, the melting point is 127 °C.

In turn, `O=C(Cl)N1CCNC1=O` yielded a melting point of 150 °C.

Source of the values: a melting point compilation (Tetko et al.; mined from patent text by program, amines drawn as free bases though some values may be those of a salt).
